# Columns and labels:
# [1] = tested on: peritoneal exsudatum cells (PEC); experiment: Effect on phagocytosis, in vivo; set-up: species or system CFLP mice; conditions: 24th hour after treatment, control 179.7 ± 3.6
# Protocol: Male CFLP mice having a body of weight of 22-23 g are divided into four groups of 8-12 animals each. The animals of the test groups are treated with Glp-Lys-NH2 -mandelate for 2 days. The treatment is carried out by administering a 0.1, 1 or 10 mg/kg s.c. dose, respectively, of the active ingredient once a day, in the form of a solution in a physiological sodium chloride solution. In the 24th hour after the last treatment the yeast cell incorporating capacity of the peritoneal exsudatum cells (PEC) is determined. In the Table the x±S.E.M. data relate to the number of yeast cells incorporated into the 100 PEC cells.
# [2] = tested on: PEC cells; experiment: Phagocytosis inhibited by cyclophosphamide, simultaneously administered cyclophosphamide and peptide; format: in vivo, CFLP mice; conditions: 2 days, CY alone 102.5 ± 4.8, control 186.3 ± 7.8
# Protocol: (§1) Male CFLP mice weighing 22-23 g are divided into five groups of 8-12 animals each. The animals belonging to the test groups (all groups except the control one) are treated for two days once a day with a 80 mg/kg p.o. dose of cyclophosphamide and the animals of three of the said groups are treated simultaneously with the administration of cyclophosphamide with a 0.1, 1.0 and 10 mg/kg s.c. dose, respectively, of Glp-Lys-NH2 -mandelate dissolved in a physiological soidum chloride solution. On the 3rd day of the test the yeast cell incorporating capacity of the PEC cells is determined. The x±S.E.M. values disclosed in the Table stand for the number of yeast cells incorporated by the 100 PEC cells.
# [3] = tested on: PEC cells; experiment: Phagocytosis inhibited by cyclophosphamide, non-simultaneously administered cyclophosphamide and peptide; format: in vivo, CFLP mice; conditions: CY 80 mg/kg p.o., CY alone 112.1 ± 6.4, control 221 ± 9.4
# Protocol: as §1, with “cells. One proceeds as described in test a) except that the peptide is administered to the animals 6 hours after treatment with cyclophosphamide. The test is evaluated as described above.” for “cells.”
# [4] = tested on: human K-562 erythroleukaemical cell-line; experiment: Inhibition of the proliferation of tumor cells (K-562); format: cell-based; conditions: 72nd hour after treatment, percentage of the control
# Protocol: In the test human K-562 erythroleukaemical cell-line is used (Karolinska Institute, Stockholm). Incubation is carried out in a nutrient medium designated RPMI-1640 (manufactured by Flow, Great Britain) comprising 10% of foetal calf serum, at a temperature of 37° C., in a humidified incubator containing 3% of carbon dioxide, in plastic dishes. Every point of measurement corresponds to the average of the data measured in three dishes, each. At the beginning of the test the dilution amounts to 0.5×10^5 cells/ml. Treatment is carried out 24 hours after dilution in a manner that the medium is not changed after the treatment. The cells are counted for 96 hours after dilution every 24th hour wit the aid of a Buerker chamber.
# Under the effect of the peptide in the 24th hour after treatment the cell number stagnates and later it increases to a very small extent. […] The tumor-cell division inhibiting effect of the new peptides is summarized in Table 1 (72 hours after treatment). The rate of inhibition is expressed in the percentage of the control. It clearly appears from the data of the Table that the tested peptides inhibit the proliferation of human K-562 erythroleukaemic cells.
# [5] = tested on: lymphocytes inhibited by Azathioprine; experiment: E-rosetta test inhibited by Azathioprine; format: cell-based
# Protocol: Inhibition of the proliferation of T-lymphocytes is tested in the E-rosetta test inhibited by Azathioprine [6-(1-methyl-4-nitroimidazole-5-yl-thio)-purine; Thymus 1, 195 (1980)].
# To 200 μl of a healthy lymphocyte cell-suspension 500 μl/ml of Azathioprine and 200 μl of a separate dilution of the test compound in HBBS buffer (manufacturer: Flow, Great Britain) are added (concentration range: 10^-3 to […]). The mixture is incubated at a temperature of 37° C. in air containing 5% of carbon dioxide for 60 minutes, whereupon 200 μl of a 1% sheep erythrocyte suspension are added. The mixture thus-obtained is centrifuged at 1,000 r.p.m. for 5 minutes, the supernatant is removed by decanting and in the suspension the lymphocytes forming E-rosetta are counted under a microscope from at least 400 cells.
# Under the effect of the peptides the E-rosetta forming activity of the lymphocytes inhibited by Azathioprine increases to different extent. […] It appears from the data of Table 2 that the tested peptides increase the E-rosetta forming capacity of inhibited lymphocytes, i.e. the peptides of the present invention show immunostimulant effect.
# [6] = tested on: antibody production inhibited by cyclophosphamide; experiment: Effect on antibody production in mice treated with cyclophosphamide; format: in vivo, CELP mice; conditions: cyclophosphamide 100 mg/kg i.p., titer on 6th day
# Protocol: The effect on in vivo antibody production is tested on CELP mice treated with a 100 mg/kg body weight dose of cyclophosphamide {2-[bis-(2-chloroethyl)-amino]-tetrahydro-2H-1,3,2-oxaza -phosphorine-2-oxide; method: Z. Naturforsch. 35B, 1476 (1980)}. The mice are intraperitoneally immunized with a 1% sheep erythrocyte suspension previously washed three times with a 0.9% sodium chloride solution after 10 minutes of centrifuging at 2,500 r.p.m. Simultaneously with immunization carried out on the 0. day, the activity of the immune system is suppressed by means of treatment with a 100 mg/kg i.p. does of cyclophosphamide. On the 3rd day of the test the peptides are administered to the animals intraperitoneally in a dose of 5, 50 and occasionally 100 mg/kg respectively. On the 6th day of the test blood is taken retroorbitally from the mice and the anti-sheep erythrocyte titer of the serum is determined. […] The effect of the peptides is expressed as percentage of the relief of inhibition (G %).
# [7] = tested on: inflammation induced by oxozolone; experiment: Dermatitis test induced with oxazolone; format: in vivo, CFLP mice; conditions: 24th hour after treatment, ear weight increase
# Protocol: In this test a modified pharmacological model of D. P. Evans et al. [Br. J. Pharmac. 43, 403-488 (1971)] is used.
# The abdominal skin of male CFLP mice weighing 20-22 g is painted after the removal of the hair with 0.1 ml of a 2% solution of oxazolon (4-ethoxymethyl-2-phenyl-oxazoline, manufacturer Sigma) in sunflower oil. On the right ear of the test animals 7 days after sensitization (painting) inflammatory reaction is induced with the aid of 10 μl of a 2% acetonous oxazolone solution and simultaneously the animals are treated with a 1 or 2 mg/kg, respectively, i.p. does of the test compound. The test compound is dissolved in a physiological sodium chloride solution in such a concentration that the active ingredient content corresponding to the dose should be dissolved in a volume of 0.5 ml/10 g animal body weight.
# The antiinflammatory effect is determined as follows: the animals are sacrificed in the 24th hour after treatment, whereupon the right and left ears are cut off. The percentual weight increase of the right ear related to the left ear is characteristic of the rate of inflammation induced during the test, while the percentual reduction of weight increase of the treated animals related to the untreated control is proportional to the antiinflammatory effect. In Table 4 the reduction of weight increase (antiinflammatory effect) achieved by the test compounds is disclosed, as the percentage of the untreated control.
# [8] = tested on: Lewis Lung Tumor (LLT); experiment: Tumor metastasis inhibiting effect; format: in vivo, C57 B1 mice; conditions: single 10 mg/kg i.p., 18th day
# Protocol: 20 g male C57 B1 mice divided into groups consisting of 5 animals each, are injected with a Lewis Lung Tumor (LLT) cell-suspension. The said cell-suspension is administered into the tail vein, in a dose of 10^5 cells/mouse. Twenty-four hours after the administration of the tumor-cells the animals are treated with a single 10 mg/kg i.p. dose of the test compound. On the 18th day following infection with the tumor the animals are sacrificed and the cancer noduli appearing in the lungs are counted under a stereomicroscope. Animals not treated with peptide serve as control. In Table 8 the results obtained with Glp-Lys-NH2 dipeptide amide are disclosed.
substance,measurement,setting,value
Glp-Lys-NH2 -mandelate,Phagocyte activity x ± S.E.M. (number of yeast cells incorporated into the 100 PEC cells),[1]; 0.1 mg/kg s.c. once a day for 2 days,182.3 ± 3.5
same,Phagocyte activity x ± S.E.M. (number of yeast cells incorporated into the 100 PEC cells),[1]; 1.0 mg/kg s.c. once a day for 2 days,209.3 ± 8.6
same,Phagocyte activity x ± S.E.M. (number of yeast cells incorporated into the 100 PEC cells),[1]; 10 mg/kg s.c. once a day for 2 days,244.8 ± 4.3
same,Phagocyte activity x ± S.E.M. (number of yeast cells incorporated by the 100 PEC cells),[2]; CY 80 mg/kg p.o. + peptide 0.1 mg/kg s.c. simultaneously,241.7 ± 20.3
same,Phagocyte activity x ± S.E.M. (number of yeast cells incorporated by the 100 PEC cells),[2]; CY 80 mg/kg p.o. + peptide 1.0 mg/kg s.c. simultaneously,215.2 ± 21.5
same,Phagocyte activity x ± S.E.M. (number of yeast cells incorporated by the 100 PEC cells),[2]; CY 80 mg/kg p.o. + peptide 10 mg/kg s.c. simultaneously,164.4 ± 13.8
same,Phagocyte activity x ± S.E.M. (number of yeast cells incorporated by the 100 PEC cells),[3]; peptide 0.1 mg/kg s.c. 6 hours after CY,226.5 ± 8.8
same,Phagocyte activity x ± S.E.M. (number of yeast cells incorporated by the 100 PEC cells),[3]; peptide 1.0 mg/kg s.c. 6 hours after CY,252.2 ± 7.4
same,Phagocyte activity x ± S.E.M. (number of yeast cells incorporated by the 100 PEC cells),[3]; peptide 10 mg/kg s.c. 6 hours after CY,257.3 ± 9.3
Glp-Lys-NH2 [Peptide 1],"Inhibition of the proliferation of K-562 cells, inhibition (c %)",[4]; peptide 1/ug/ml,20%
same,"Inhibition of the proliferation of K-562 cells, inhibition (c %)",[4]; peptide 10/ug/ml,42%
same,Relief of inhibition (R %) of E-rosetta forming activity,[5]; peptide 10^-3 mole/l,33.0%
same,Relief of inhibition (R %) of E-rosetta forming activity,[5]; peptide 10^-5 mole/l,9.9%
same,Relief of inhibition (R %) of E-rosetta forming activity,[5]; peptide 10^-7 mole/l,36.6%
same,Relief of inhibition (R %) of E-rosetta forming activity,[5]; peptide 10^-9 mole/l,25.0%
same,Relief of inhibition (R %) of E-rosetta forming activity,[5]; peptide 10^-11 mole/l,10.0%
same,"Restoration of primary immune answer, G %",[6]; peptide 5 mg/kg i.p. on 3rd day,123.8%
same,"Restoration of primary immune answer, G %",[6]; peptide 50 mg/kg i.p. on 3rd day,133.3%
same,"Inhibition of inflammation induced by oxozolone, inhibition as % of control",[7]; 1 mg/kg i.p.,62%
same,"Inhibition of inflammation induced by oxozolone, inhibition as % of control",[7]; 2 mg/kg i.p.,61%
same,No. of metastases in the lungs,"[8]; treated animal No. 1, untreated control 15",0
same,No. of metastases in the lungs,"[8]; treated animal No. 2, untreated control 20",2
same,No. of metastases in the lungs,"[8]; treated animal No. 3, untreated control 16",1
same,No. of metastases in the lungs,"[8]; treated animal No. 4, untreated control 12",2
same,No. of metastases in the lungs,"[8]; treated animal No. 5, untreated control 11",5

# Reference: patent US5041535A, “Antileukemic and immunostimulant peptides” (Richter Gedeon Vegyeszeti Gyar Rt., priority 1986, dated 1991)
